Data from patent publication EP2061765B1, “Serine-threonine protein kinase and PARP modulators” (Senhwa Biosciences, Inc., priority 2006, dated 2008).

How the values were obtained:
Assay in all cases: Cell proliferation assay (Alamar Blue)
Assay type in all cases: cell-based
K-562 = conditions: Homo sapiens, K562, 96 h, K-562 cells, four days
LNCaP = conditions: Homo sapiens, 96 h, LNCaP cells, four days
Summary of the method: (§1)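 Fluorescence read-out (ex 544 nm, em 590 nm) after a four-hour Alamar Blue incubation, which follows four days of compound exposure at 37°C in 5% CO2. Seeding density is 4,000-5,000 cells per well.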

HL-60 = conditions: Homo sapiens, 96 h, HL-60 cells, four days
Summary of the method: as §1

MCF-7 = conditions: Homo sapiens, MCF7, 96 h, MCF-7 cells, four days
Summary of the method: as §1

Raji = conditions: Homo sapiens, 96 h, Raji cells, four days
Summary of the method: as §1

A549 = conditions: Homo sapiens, 96 h, A549 cells, four days
Summary of the method: as §1

MDAMB231 = conditions: Homo sapiens, MDA-MB-231, 96 h, MDAMB231 cells, four days
Summary of the method: as §1

H460 = conditions: Homo sapiens, NCI-H460, 96 h, H460 cells, four days
Summary of the method: as §1

HT29 = conditions: Homo sapiens, HT-29, 96 h, HT29 cells, four days
Summary of the method: as §1

COLO205 = conditions: Homo sapiens, COLO 205, 96 h, COLO205 cells, four days
Summary of the method: as §1

BxPC3 = conditions: Homo sapiens, BXPC-3, 96 h, BxPC3 cells, four days
Summary of the method: as §1

PanC1 = conditions: Homo sapiens, PANC-1, 96 h, PanC1 cells, four days
Summary of the method: as §1

SK-OV-3 = conditions: Homo sapiens, 96 h, SK-OV-3 cells, four days
Summary of the method: as §1

Jurkat = conditions: Homo sapiens, 96 h, Jurkat cells, four days
Summary of the method: as §1

A375 = conditions: Homo sapiens, A-375, 96 h, A375 cells, four days
Summary of the method: as §1

MiaPaCa = conditions: Homo sapiens, MIA PaCa-2, 96 h, MiaPaCa cells, four days
Summary of the method: as §1

H1299 = conditions: Homo sapiens, NCI-H1299, 96 h, H1299 cells, four days
Summary of the method: as §1

PC3 = conditions: Homo sapiens, PC-3, 96 h, PC3 cells, four days
Summary of the method: as §1

Hs578T = conditions: Homo sapiens, Hs-578T, 96 h, Hs578T cells, four days
Summary of the method: as §1

HCT-116 = conditions: Homo sapiens, 96 h, HCT-116 cells, four days

Row | Compound | IC50 (K-562) [µM] | IC50 (LNCaP) [µM] | IC50 (HL-60) [µM] | IC50 (MCF-7) [µM] | IC50 (Raji) [µM] | IC50 (A549) [µM] | IC50 (MDAMB231) [µM] | IC50 (HT29) [µM] | IC50 (BxPC3) [µM] | IC50 (PanC1) [µM] | also measured
1 | O=C(O)c1ccc2c(c1)nc(Nc1cccc(Cl)c1)c1ccncc12 [drawing 376] | 2.99 | 4.89 | 2.64 | 17.7 | 3.32 | 6.59 |  |  |  |  | 
2 | O=C(O)c1ccc2c(c1)nc(Nc1ccc(F)c(Cl)c1)c1ccncc12 [drawing 373] | 4.95 | 4.57 | 1.92 | 8.24 | 4.51 | 6.83 | 6.13 |  |  |  | 
3 | O=C(O)c1ccc2c(c1)nc(Nc1ccccc1)c1ccncc12 [drawing 372] | 4.01 | 8.18 | 4.86 | 10.8 | 13.7 | 4.16 | 2.66 |  |  |  | 
4 | O=C(O)c1ccc2c(c1)nc(Nc1cc(F)cc(F)c1)c1ncncc12 [drawing 377] | 2.41 | 1.83 | 1.85 | 2.02 | 8.47 | 24.6 | 3.1 |  |  |  | 
5 | C#Cc1cccc(Nc2nc3cc(C(=O)O)ccc3c3cnccc23)c1 [drawing 385] | 3.33 | 17.1 | 5.59 | 1.43 | 4.28 | 30.2 | 11.8 |  |  |  | 
6 | O=C(O)c1ccc2c(c1)nc(Nc1cccc(Cl)c1)c1ncncc12 [drawing 451] |  |  |  |  |  |  |  | 13 | 1.48 | 18.7 | IC50 (H460): 4.1 µM; IC50 (COLO205): 8.62 µM; IC50 (SK-OV-3): 8.97 µM
7 | O=C(O)c1ccc2c(c1)nc(Nc1cccc(Cl)c1)c1ncncc12 [drawing 379] | 1.13 | 1.56 | 7.35 | 1.79 |  | 28.5 | 1.18 |  |  |  | 
8 | O=C(O)c1ccc2c(c1)nc(Nc1ccc(F)c(Cl)c1)c1ccncc12 [drawing 444] |  |  |  |  |  |  |  |  | 1.5 | 1.84 | IC50 (H460): 8.69 µM; IC50 (COLO205): 2.2 µM; IC50 (SK-OV-3): 7.33 µM
9 | O=C(O)c1ccc2c(c1)nc(Nc1ccc(Cl)cc1)c1ccncc12 [drawing 456] |  |  |  |  |  |  |  | 26.9 | 6.38 | 25.8 | IC50 (H460): 9.1 µM; IC50 (COLO205): 1.57 µM; IC50 (SK-OV-3): 15.3 µM
10 | O=C(O)c1ccc2c(c1)nc(Nc1cc(F)cc(F)c1)c1ccncc12 [drawing 459] |  |  |  |  |  |  |  | 16.6 | 1.63 | 24 | IC50 (H460): 7.53 µM; IC50 (COLO205): 3.62 µM; IC50 (SK-OV-3): 10.1 µM
11 | CNc1ncc2c(n1)c(Nc1ccccc1)nc1cc(C(=O)O)ccc12 [drawing 383] |  | 1.44 | 0.73 | 3.4 | 4.97 | 13.9 | 2.38 |  |  |  | 
12 | O=C(O)c1ccc2c(c1)nc(Nc1cc(F)cc(F)c1)c1ncncc12 [drawing 301] |  |  |  |  |  |  |  |  |  |  | IC50 (Jurkat): 2.59 µM; IC50 (A375): 2.63 µM; IC50 (MiaPaCa): 0.85 µM; IC50 (H1299): 6.62 µM; IC50 (PC3): 7.5 µM; IC50 (Hs578T): 5.9 µM; IC50 (HCT-116): 4.06 µM
13 | O=C(O)c1ccc2c(c1)nc(Nc1cccc(Cl)c1)c1ccncc12 [drawing 299] |  |  |  |  |  |  |  |  |  |  | IC50 (Jurkat): 2.37 µM; IC50 (A375): 3.95 µM; IC50 (MiaPaCa): 2.74 µM; IC50 (H1299): 3.08 µM; IC50 (PC3): 1.51 µM; IC50 (Hs578T): 0.67 µM; IC50 (HCT-116): 4.02 µM
14 | O=C(O)c1ccc2c(c1)nc(Nc1ccccc1)c1ccncc12 [drawing 286] |  |  |  |  |  |  |  |  |  |  | IC50 (Jurkat): 23.7 µM; IC50 (A375): 18.4 µM; IC50 (MiaPaCa): 7.51 µM; IC50 (H1299): 6.84 µM; IC50 (PC3): 15.4 µM; IC50 (Hs578T): 14.9 µM; IC50 (HCT-116): 13.3 µM
15 | O=C(O)c1ccc2c(c1)nc(Nc1cccc(F)c1)c1ccncc12 [drawing 447] |  |  |  |  |  |  |  | 12.8 |  |  | 
16 | N#Cc1cccc(Nc2nc3cc(C(=O)O)ccc3c3cnccc23)c1 [drawing 460] |  |  |  |  |  |  |  | 41.8 | 3.62 | > 50 | 
17 | O=C(O)c1ccc2c(c1)nc(Nc1cccc(F)c1)c1ncncc12 [drawing 450] |  |  |  |  |  |  |  | 17 | 3.48 | 3.79 | IC50 (H460): 6.16 µM; IC50 (COLO205): 6.16 µM; IC50 (SK-OV-3): 14.4 µM
